Experimental data published in US20230096766A1, “AMINO ACID HAVING FUNCTIONAL GROUP CAPABLE OF INTERMOLECULAR HYDROGEN BONDING, PEPTIDE COMPOUND CONTAINING SAME AND METHOD FOR PRODUCTION THEREOF” (Chugai Seiyaku Kabushiki Kaisha, priority 2018, published 2023).
*1 amine or outer side, *2 acyl side, *3 side chain or, on linkers, in order; H or OH if unused. Where a SMILES comes first, the peptide text is derived from it. Bridges are numbered along the chain shown (N, C = ends). [ ]: non-standard residue; d: D form. The star is where a group is joined. ξ: configuration not given here. Phe(3-OMe,4-CONHMs) = COc1cc(C[C@H](N)C(=O)O)ccc1C(=O)NS(C)(=O)=O; dhPhe(4-CONHMe,3-OMe) = CNC(=O)c1ccc(CC[C@@H](N)C(=O)O)cc1OC; hPhe(3-OMe,4-CONHMe) = CNC(=O)c1ccc(CC[C@H](N)C(=O)O)cc1OC; Phe(3-CONHMe,4-OMe) = CNC(=O)c1cc(C[C@H](N)C(=O)O)ccc1OC; Phe(4-COOH) = N[C@@H](Cc1ccc(C(=O)O)cc1)C(=O)O; X11 = CNC(=O)c1ccc(CCN(CC(=O)[*:2])[*:1])cc1OC; NMePhe(3-Cl) = CN[C@@H](Cc1cccc(Cl)c1)C(=O)O; X12 = O=C([C@H](CCCC(O)C(F)(F)F)N[*:1])[*:2]; Tyr(3-OMe) = COc1cc(C[C@H](N)C(=O)O)ccc1O; NMehPhe = CN[C@@H](CCc1ccccc1)C(=O)O; X6 = O=C([C@H](CCCCO)N[*:1])[*:2]; NMeF = CN[C@@H](Cc1ccccc1)C(=O)O; NMeGABA = CN(CCCC(=O)[*:2])[*:1]; NMeI = CC[C@H](C)[C@H](NC)C(=O)O; NMeL = CN[C@@H](CC(C)C)C(=O)O; Butyl(3R-OH) = C[C@@H](O)CC*; Propyl(2R-OH) = C[C@@H](O)C*; NMeV = CN[C@H](C(=O)O)C(C)C; NMeAbu = CC[C@H](NC)C(=O)O; ξNMeL = CNC(CC(C)C)C(=O)O; NMeA = CN[C@@H](C)C(=O)O; Piperidide = C1CCN(*)CC1; dAbu = CC[C@@H](N)C(=O)O; CH2CMe2OH = CC(C)(O)C*; NBuGly = CCCCNCC(=O)O; NPrGly = CCCNCC(=O)O; Ethyl(2-OH) = OCC*; N(OH)Me = CN(O)*; Sar = CNCC(=O)O; tBu = CC(C)(C)*

Assay: in vitro
Conditions: human, Caco-2, Caco-2 (cm/sec)

Structure (SMILES)	Papp [×10⁻⁶ cm/s]
CC[C@H]1C(=O)N(C)[C@@H](Cc2ccccc2)C(=O)N[C@@H](C)C(=O)N(C)[C@@H](CC(C)C)C(=O)N(C)[C@@H](CC(C)C)C(=O)N[C@@H]([C@@H](C)O)C(=O)N(CCc2ccc(C(=O)NC)c(OC)c2)CC(=O)N(C)[C@@H](CC(C)C)C(=O)N[C@H](C(=O)N2CCCCC2)CC(=O)N(C)[C@@H](C(C)C)C(=O)N[C@@H](CC(C)C)C(=O)N1C [AP217] ([NMeV]L[NMeAbu][NMeF]A[NMeL][NMeL]T[X11][NMeL]D-Piperidide; lactam N-11)	1
CCCCN1CC(=O)N(C)[C@@H](CC(C)C)C(=O)N[C@@H](COC(C)(C)C)C(=O)N(C)[C@@H]([C@@H](C)CC)C(=O)N(C)[C@@H](CC(C)C)C(=O)N[C@H](C(=O)N2CCCCC2)CC(=O)N[C@H](C)C(=O)N(C)[C@@H](Cc2ccccc2)C(=O)N[C@@H](Cc2ccc(C(=O)NS(C)(=O)=O)c(OC)c2)C(=O)N(C)[C@@H](CC(C)C)C(=O)N[C@@H]([C@@H](C)O)C1=O [AP137] ([dA][NMeF][Phe(3-OMe,4-CONHMs)][NMeL]T[NBuGly][NMeL]S(tBu)[NMeI][NMeL]D-Piperidide; lactam N-11)	< 0.29
CNC(=O)c1cc(C[C@@H]2NC(=O)[C@H](CC(C)C)N(C)C(=O)[C@H](CC(C)C)N(C)C(=O)[C@H](CC(C)C)NC(=O)[C@H](CC(C)C)N(C)C(=O)C[C@@H](C(=O)N3CCCCC3)NC(=O)[C@H](CC(C)C)N(C)C(=O)CN(C)C(=O)[C@H]([C@@H](C)O)NC(=O)[C@H](C(C)C)N(C)C(=O)[C@H](CC(C)C)N(C)C2=O)ccc1OC [AP40] ([NMeL]L[NMeL][NMeL][Phe(3-CONHMe,4-OMe)][NMeL][NMeV]T[Sar][NMeL]D-Piperidide; lactam N-11)	0.63
CC(C)C[C@@H]1NC(=O)[C@H](CCc2ccccc2)N(C)C(=O)[C@H](CCc2ccccc2)N(C)C(=O)[C@H](COCCO)NC(=O)[C@H](CC(C)C)N(C)C(=O)CCCN(C)C(=O)C[C@@H](C(=O)N2CCCCC2)NC(=O)[C@H](CC(C)C)N(C)C(=O)[C@H](CC(C)C)N(C)C(=O)[C@H]([C@@H](C)O)NC(=O)[C@H](CC(C)C)N(C)C1=O [Compound A03] ([NMeGABA][NMeL]S(Ethyl(2-OH))[NMehPhe][NMehPhe]L[NMeL]T[NMeL][NMeL]D-Piperidide; lactam N-11)	0.32
CC[C@H]1NC(=O)C[C@@H](C(=O)N2CCCCC2)NC(=O)[C@H](CC(C)C)N(C)C(=O)[C@H](Cc2cccc(Cl)c2)N(C)C(=O)[C@H](CCCCO)NC(=O)[C@H](CC(C)C)N(C)C(=O)CN(C)C(=O)[C@H]([C@@H](C)O)NC(=O)[C@H](CC(C)C)N(C)C(=O)[C@H](CC(C)C)NC(=O)[C@H](CCc2ccccc2)N(C)C1=O [Compound B02] ([dAbu][NMehPhe]L[NMeL]T[Sar][NMeL][X6][NMePhe(3-Cl)][NMeL]D-Piperidide; lactam N-11)	0.15
CCCN1CC(=O)N(C)[C@@H](CC(C)C)C(=O)N[C@@H](COCC(C)(C)O)C(=O)N(C)[C@@H](Cc2ccccc2)C(=O)N(C)[C@@H](CC(C)C)C(=O)N[C@H](C(=O)N2CCCCC2)CC(=O)N[C@H](C(C)C)C(=O)N(C)[C@@H](Cc2ccccc2)C(=O)N[C@@H](CC(C)C)C(=O)N(C)[C@@H](CC(C)C)C(=O)N[C@@H]([C@@H](C)O)C1=O [AP10] ([dV][NMeF]L[NMeL]T[NPrGly][NMeL]S(CH2CMe2OH)[NMeF][NMeL]D-Piperidide; lactam N-11)	1.5
CCCCN1CC(=O)N(C)[C@@H](Cc2ccccc2)C(=O)N(C)[C@@H](CC(C)C)C(=O)N[C@@H](CC(C)C)C(=O)N(C)[C@@H](CC(C)C)C(=O)N[C@H](C(=O)N2CCCCC2)CC(=O)N(C)CC(=O)N(C)[C@@H](CC(C)C)C(=O)N[C@@H](Cc2ccc(O)c(OC)c2)C(=O)N(C)[C@@H](CC)C(=O)N[C@@H]([C@@H](C)O)C1=O [Compound E07] ([Sar][NMeL][Tyr(3-OMe)][NMeAbu]T[NBuGly][NMeF][NMeL]L[NMeL]D-Piperidide; lactam N-11)	1.1
CC(C)C[C@@H]1NC(=O)[C@H](Cc2ccccc2)N(C)C(=O)[C@@H]2CCCN2C(=O)C[C@@H](C(=O)N2CCCCC2)NC(=O)[C@H](Cc2ccccc2)N(C)C(=O)[C@H](Cc2ccccc2)N(C)C(=O)[C@H](COC(C)(C)C)NC(=O)[C@H](CC(C)C)N(C)C(=O)CN(C)C(=O)[C@H]([C@@H](C)O)NC(=O)[C@H](CC(C)C)N(C)C1=O [pd203] (P[NMeF]L[NMeL]T[Sar][NMeL]S(tBu)[NMeF][NMeF]D-Piperidide; lactam N-11)	2.1
CCCCN1CC(=O)N(C)[C@@H](Cc2ccccc2)C(=O)N(C)[C@@H](CC(C)C)C(=O)N[C@@H](CCc2ccc(C(=O)NC)c(OC)c2)C(=O)N(C)[C@@H](CC(C)C)C(=O)N[C@H](C(=O)N2CCCCC2)CC(=O)N(C)CC(=O)N(C)[C@@H](CC(C)C)C(=O)N[C@@H]([C@@H](C)CC)C(=O)N(C)[C@@H](CC(C)C)C(=O)N[C@@H]([C@@H](C)O)C1=O [AP207] ([Sar][NMeL]I[NMeL]T[NBuGly][NMeF][NMeL][hPhe(3-OMe,4-CONHMe)][NMeL]D-Piperidide; lactam N-11)	0.51
CCCCN1CC(=O)N(C)[C@@H](CC(C)C)C(=O)N[C@@H](COC(C)(C)C)C(=O)N(C)[C@@H](Cc2ccccc2)C(=O)N(C)[C@@H](CC(C)C)C(=O)N[C@H](C(=O)N2CCCCC2)CC(=O)N[C@H](C(C)C)C(=O)N(C)[C@@H](Cc2ccccc2)C(=O)N[C@@H](COC[C@@H](C)O)C(=O)N(C)[C@@H](CC(C)C)C(=O)N[C@@H]([C@@H](C)O)C1=O [AP71] ([dV][NMeF]S(Propyl(2R-OH))[NMeL]T[NBuGly][NMeL]S(tBu)[NMeF][NMeL]D-Piperidide; lactam N-11)	0.71
CC(C)C[C@H]1C(=O)N[C@@H](COCC[C@@H](C)O)C(=O)N(C)[C@@H](Cc2ccccc2)C(=O)N(C)[C@@H](Cc2cccc(Cl)c2)C(=O)N[C@@H](COC(C)(C)C)C(=O)N(C)[C@@H](CC(C)C)C(=O)N[C@@H]([C@@H](C)O)C(=O)N(C)[C@@H](CC(C)C)C(=O)N(C)[C@@H](CC(C)C)C(=O)N[C@H](C(=O)N2CCCCC2)CC(=O)N(C)CCCC(=O)N1C [AP115] ([NMeGABA][NMeL]S(Butyl(3R-OH))[NMeF][NMePhe(3-Cl)]S(tBu)[NMeL]T[NMeL][NMeL]D-Piperidide; lactam N-11)	0.27
CCCN1CC(=O)N(C)[C@@H](CC(C)C)C(=O)N[C@H](C(=O)N2CCCCC2)CC(=O)N(C)[C@@H](C)C(=O)N[C@@H](CC(C)C)C(=O)N(C)[C@@H](CC(C)C)C(=O)N(C)[C@@H](Cc2ccccc2)C(=O)N[C@@H](COCC(C)(C)O)C(=O)N(C)[C@@H](Cc2ccccc2)C(=O)N(C)[C@@H]([C@@H](C)CC)C(=O)N[C@@H]([C@@H](C)O)C1=O [AP06] ([NMeA]L[NMeL][NMeF]S(CH2CMe2OH)[NMeF][NMeI]T[NPrGly][NMeL]D-Piperidide; lactam N-11)	0.033
CCCCN1CC(=O)N(C)[C@@H](CC(C)C)C(=O)N[C@@H](Cc2ccc(C(=O)N(C)O)cc2)C(=O)N(C)[C@@H](CC(C)C)C(=O)N(C)[C@@H](CC(C)C)C(=O)N[C@H](C(=O)N2CCCCC2)CC(=O)N[C@H](CC(C)C)C(=O)N(C)[C@@H](Cc2ccccc2)C(=O)N[C@@H](C(C)C)C(=O)N(C)C(CC(C)C)C(=O)N[C@@H]([C@@H](C)O)C1=O (stereo partly drawn) [AP249] ([dL][NMeF]V[ξNMeL]T[NBuGly][NMeL][Phe(4-COOH)](N(OH)Me)[NMeL][NMeL]D-Piperidide; lactam N-11)	0.04
CCCCN1CC(=O)N(C)[C@@H](Cc2cccc(Cl)c2)C(=O)N(C)[C@@H](CC(C)C)C(=O)N[C@@H](COCC[C@@H](C)O)C(=O)N(C)[C@@H](CC(C)C)C(=O)N[C@H](C(=O)N2CCCCC2)CC(=O)N(C)CC(=O)N(C)[C@@H](Cc2ccccc2)C(=O)N[C@@H](C(C)C)C(=O)N(C)[C@@H](CC(C)C)C(=O)N[C@@H]([C@@H](C)O)C1=O [AP114] ([Sar][NMeF]V[NMeL]T[NBuGly][NMePhe(3-Cl)][NMeL]S(Butyl(3R-OH))[NMeL]D-Piperidide; lactam N-11)	0.28
CCCCN1CC(=O)N(C)[C@@H](CC(C)C)C(=O)N[C@@H](COC(C)(C)C)C(=O)N(C)[C@@H]([C@@H](C)CC)C(=O)N(C)[C@@H](CC(C)C)C(=O)N[C@H](C(=O)N2CCCCC2)CC(=O)N[C@H](C)C(=O)N(C)[C@@H](Cc2ccccc2)C(=O)N[C@@H](Cc2ccc(OC)c(C(=O)NC)c2)C(=O)N(C)[C@@H](CC(C)C)C(=O)N[C@@H]([C@@H](C)O)C1=O [AP37] ([dA][NMeF][Phe(3-CONHMe,4-OMe)][NMeL]T[NBuGly][NMeL]S(tBu)[NMeI][NMeL]D-Piperidide; lactam N-11)	0.4
CC[C@H]1C(=O)N[C@@H](CC(C)C)C(=O)N(C)[C@@H](CC(C)C)C(=O)N(C)[C@@H](Cc2ccccc2)C(=O)N[C@H](CCc2ccc(C(=O)NC)c(OC)c2)C(=O)N(C)[C@@H](CC(C)C)C(=O)N(C)[C@@H](CC(C)C)C(=O)N[C@@H]([C@@H](C)O)C(=O)N(C)CC(=O)N(C)[C@@H](CC(C)C)C(=O)N[C@H](C(=O)N2CCCCC2)CC(=O)N1C [AP212] ([NMeAbu]L[NMeL][NMeF][dhPhe(4-CONHMe,3-OMe)][NMeL][NMeL]T[Sar][NMeL]D-Piperidide; lactam N-11)	0.64

Same assay, conditions: human, Caco-2, Caco-2 (cm/sec) Papp

Structure (SMILES)	Papp [×10⁻⁶ cm/s]
CC(C)C[C@@H]1NC(=O)[C@H](Cc2ccccc2)N(C)C(=O)[C@H](C(C)C)N(C)C(=O)C[C@@H](C(=O)N2CCCCC2)NC(=O)[C@H]([C@@H](C)O)NC(=O)[C@H](Cc2ccccc2)N(C)C(=O)[C@H](Cc2ccccc2)NC(=O)[C@H](Cc2ccccc2)N(C)C(=O)CN(C)C(=O)[C@H](C)N(C)C(=O)[C@H](CC(C)C)N(C)C1=O [pd229] ([NMeV][NMeF]L[NMeL][NMeA][Sar][NMeF]F[NMeF]TD-Piperidide; lactam N-11)	0.41

Same assay, conditions: human, Caco-2, Caco-2 (membrane permeability)

Structure (SMILES)	Papp [×10⁻⁶ cm/s]
CC[C@H](C)[C@@H]1NC(=O)[C@H](CC(C)C)N(C)C(=O)[C@H](CCCC(O)C(F)(F)F)NC(=O)[C@H](Cc2ccccc2)N(C)C(=O)CN(C)C(=O)C[C@@H](C(=O)N2CCCCC2)NC(=O)[C@H](CC(C)C)N(C)C(=O)[C@H](COC(C)(C)C)NC(=O)[C@H](CC(C)C)N(C)C(=O)[C@H](Cc2ccccc2)N(C)C(=O)CN(C)C1=O (stereo partly drawn) [Compound D17] ([Sar][NMeF][X12][NMeL]I[Sar][NMeF][NMeL]S(tBu)[NMeL]D-Piperidide; lactam N-11)	1
